The target of series [1] is T1, Dual specificity calcium/calmodulin-dependent 3',5'-cyclic nucleotide phosphodiesterase 1B (Homo sapiens, UniProt Q01064). The experiment in a line: Inhibition of PDE1B (unknown origin) at 1 uM.
In series [2] the target is T1, Dual specificity calcium/calmodulin-dependent 3',5'-cyclic nucleotide phosphodiesterase 1B. The experiment in a line: Inhibition of PDE1B (unknown origin).
The target of series [3] is cAMP and cAMP-inhibited cGMP 3',5'-cyclic phosphodiesterase 10A (Homo sapiens, UniProt Q9Y233). Description: Inhibition of PDE10A (unknown origin).
A short description of series [4]: Tmax in mouse at 32 mg/kg, sc. The format is ADME, organism-based. The note with it: in vivo.
A short description of series [5]: Half life in mouse at 32 mg/kg, sc. Type of series: ADME, organism-based. The note with it: in vivo.
The nature of series [6]: Fraction unbound in mouse at 32 mg/kg, sc. Type of series: ADME, organism-based. Conditions: in vivo.
In series [7] the test system is Nucleic Acid. Description: Ratio of drug uptake from blood to plasma in mouse at 32 mg/kg, sc. The format is ADME, organism-based. The note with it: in vivo.
Series [8] is described as follows: Tmax in rat at 10 mg/kg, sc. Type of series: ADME, organism-based. Conditions: in vivo.
A short description of series [9]: Half life in rat at 10 mg/kg, sc. Type of series: ADME, organism-based. The note with it: in vivo.
Series [10] is described as follows: Fraction unbound in rat at 10 mg/kg, sc. The note with it: in vivo. The format is ADME, organism-based.
Series [11] in a line: Ratio of drug uptake from blood to plasma in rat at 10 mg/kg, sc. Type of series: ADME, organism-based. Conditions: blood and plasma.
The test system of series [12] is Nucleic Acid. Description: Ratio of drug level in CSF to unbound fraction in rat plasma at 10 mg/kg, sc. The note with it: in vivo. Type of series: ADME, organism-based.
Series [13] is described as follows: Cmax in rat at 50 mg/kg, po after 0.25 hrs. The format is ADME, organism-based. On the set-up: dose 50 mg/kg, route oral. The note with it: in vivo.
Series [14] in a line: Terminal half life in rat at 50 mg/kg, po. The note with it: in vivo, read-out: beta t1/2 (converted). Type of series: ADME, organism-based.

Sequence of cAMP and cAMP-inhibited cGMP 3',5'-cyclic phosphodiesterase 10A (Q9Y233 whole entry): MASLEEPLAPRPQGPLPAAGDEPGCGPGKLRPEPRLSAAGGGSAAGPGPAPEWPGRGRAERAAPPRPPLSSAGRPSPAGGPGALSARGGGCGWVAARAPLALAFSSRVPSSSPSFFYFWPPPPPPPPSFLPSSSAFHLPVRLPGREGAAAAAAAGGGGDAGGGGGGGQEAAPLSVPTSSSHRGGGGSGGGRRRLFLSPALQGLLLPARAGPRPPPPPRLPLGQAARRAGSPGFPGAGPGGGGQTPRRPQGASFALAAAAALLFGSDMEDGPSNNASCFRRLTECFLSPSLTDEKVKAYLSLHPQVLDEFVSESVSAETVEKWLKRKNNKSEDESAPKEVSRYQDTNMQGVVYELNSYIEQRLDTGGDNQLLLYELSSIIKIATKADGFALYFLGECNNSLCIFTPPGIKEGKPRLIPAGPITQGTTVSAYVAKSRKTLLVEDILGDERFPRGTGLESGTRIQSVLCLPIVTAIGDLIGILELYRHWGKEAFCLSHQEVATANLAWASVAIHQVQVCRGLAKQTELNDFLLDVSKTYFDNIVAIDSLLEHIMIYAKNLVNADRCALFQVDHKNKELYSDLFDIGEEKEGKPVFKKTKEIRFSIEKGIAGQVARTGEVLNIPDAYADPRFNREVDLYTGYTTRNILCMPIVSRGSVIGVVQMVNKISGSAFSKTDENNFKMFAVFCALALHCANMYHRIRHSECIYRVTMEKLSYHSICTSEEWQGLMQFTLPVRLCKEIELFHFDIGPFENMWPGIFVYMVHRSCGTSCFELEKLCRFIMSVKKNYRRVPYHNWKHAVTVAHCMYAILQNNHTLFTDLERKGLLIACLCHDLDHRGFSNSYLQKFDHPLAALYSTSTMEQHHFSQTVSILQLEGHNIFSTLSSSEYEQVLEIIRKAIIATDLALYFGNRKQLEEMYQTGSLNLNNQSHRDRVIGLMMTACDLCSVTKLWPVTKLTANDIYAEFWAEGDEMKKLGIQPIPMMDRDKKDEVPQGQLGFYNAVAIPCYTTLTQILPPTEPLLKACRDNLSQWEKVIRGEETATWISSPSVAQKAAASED
T1 sequence (Q01064 whole entry): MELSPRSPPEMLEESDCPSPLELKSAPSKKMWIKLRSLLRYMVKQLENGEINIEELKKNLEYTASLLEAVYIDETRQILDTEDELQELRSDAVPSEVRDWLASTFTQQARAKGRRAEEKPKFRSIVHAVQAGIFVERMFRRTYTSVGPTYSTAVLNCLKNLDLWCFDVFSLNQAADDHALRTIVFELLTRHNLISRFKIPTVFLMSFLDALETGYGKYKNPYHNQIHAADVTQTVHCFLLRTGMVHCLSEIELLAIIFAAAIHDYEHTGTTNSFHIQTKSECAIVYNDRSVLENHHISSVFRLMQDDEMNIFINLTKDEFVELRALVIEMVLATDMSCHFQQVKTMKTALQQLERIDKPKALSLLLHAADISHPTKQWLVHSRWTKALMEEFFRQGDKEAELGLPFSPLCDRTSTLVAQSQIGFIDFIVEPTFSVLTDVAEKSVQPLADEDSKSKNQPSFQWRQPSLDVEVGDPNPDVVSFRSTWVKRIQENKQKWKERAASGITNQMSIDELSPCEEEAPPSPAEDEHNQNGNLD

As to `COc1cc2ncnc(Cc3cccc(Cl)c3)c2cc1OC`, in series [1], the inhibition – broadly, the drop in the measured response relative to a control, in per cent – worked out at 24%.
Still for that read-out and setting: to `COc1ccc2c(N3C[C@H](C)C[C@H](C)C3)nccc2c1OC` belongs 0%.
As for `COc1ccc2c(C3CCc4ccc(Cl)cc43)ncnc2c1OC` (stereo not drawn), the IC50 (commonly the concentration that inhibits the measured activity by half) in [2] worked out at 4 nM.
The same measure, in the same setting: under `COc1ccc2c(C(C)c3cccc(Cl)c3)ncnc2c1OC` (stereo not drawn) stands 22 nM.
As to `COc1cc2ncnc(N3CC(O)CC(c4ccccc4)C3)c2cc1OC` (stereo not drawn), half-maximal inhibition in series [3] (IC50) was put at 3 nM.
Regarding `COc1ccc2c(N3C[C@H](C)C[C@H](C)C3)ccnc2c1OC`, the inhibition in series [1] came out at 0%.
Consider `COc1cc2cnnc(N3CC(O)CC(c4ccccc4)C3)c2cc1OC` (stereo not drawn), for which the IC50 in [3] came to 3 nM.
On to `COc1ccc2c(C3CCc4ccc(F)cc43)ncnc2c1OC` (stereo not drawn), for which the IC50 in series [2] turned out to be 38 nM.
On to `COc1cc2c(N3C[C@H](C)C[C@H](C)C3)cnnc2c(OC)c1OC`, for which, in series [1], the inhibition was 0%.
In the case of `CCC(CC)Nc1ncnc2c(OC)c(OC)c(OC)cc12`, the Tmax in series [4] and in [8] was 15 min throughout. Besides, the half-life in [5] is 120 min; in series [9], 39.6 min; in series [14], 306 min. The fraction unbound – broadly, the share of the substance not bound to proteins or other matrix – in series [6] was 0.18; in [10], 0.1. The values for the Ratio with Nucleic Acid [7] and with Nucleic Acid [12] were 0.28 and 0.9, respectively. In series [11], the blood plasma ratio was found to be 0.4. Besides, the Cmax (in general, the maximum level reached in the sampled fluid or tissue) in [13] was determined as 10.9 µM.
For the molecule `COc1cc2c(N3C[C@H](C)C[C@H](C)C3)nncc2c(OC)c1OC`, the inhibition in series [1] stood at 0%.
Consider `COc1cc2ncnc(Cc3ccccc3)c2cc1OC`, for which the inhibition in [1] was 0%.
Regarding `COc1cc2nncc(N3CC(O)CC(c4ccccc4)C3)c2cc1OC` (stereo not drawn), in series [3], the IC50 is 1 nM.
Consider `COc1ccc2c(N3C[C@H](C)C[C@H](C)C3)ncnc2c1OC`, for which the IC50 in [2] was 70 nM.
Same read-out and setting: to `COc1ccc2c(C3CCc4ccc(Br)cc43)ncnc2c1OC` (stereo not drawn) belongs 8 nM; to `COc1cc2ncnc(C3CCc4ccc(Cl)cc43)c2cc1OC` (stereo not drawn), 83 nM.
On the same count and under the same terms, to `COc1ccc2c([C@@H]3CCc4ccc(Cl)cc43)nccc2c1OC` belongs 458 nM; to `COc1cc2ncnc(C(C)c3cccc(Cl)c3)c2cc1OC` (stereo not drawn), 230 nM.

The values are drawn from ChEMBL document CHEMBL3600381, “Small-molecule phosphodiesterase probes: discovery of potent and selective CNS-penetrable quinazoline inhibitors of PDE1” (Medchemcomm, 2014).
